The conditions of series [1]: 100 kPa, Liquid; for mass density: Vibrating tube method.
Series [2] is described as follows: xn = mol fraction of the nth substance listed. The note with it: 100 kPa, Liquid, x2 = 0; for mass density: Vibrating tube method.

Numbers after ± are expanded uncertainties.

For the compound `O` [water], the mass density (in general, the mass of a sample divided by its volume) in series [1] (278.15 K) was 999.965 ± 0.11 kg/m3; in series [1] (283.15 K), 999.698 ± 0.11 kg/m3; in series [1] (323.15 K) it was 988.027 ± 0.11 kg/m3; in series [1] (328.15 K), 985.682 ± 0.11 kg/m3; in series [1] (333.15 K), 983.186 ± 0.11 kg/m3. The speed of sound (commonly how fast a sound wave travels through the sample) in series [1] (318.15 K, Pulse-echo method) is recorded as 1536.7 ± 0.99 m/s.
Turning to `O` [water] + OCCOCCOCCOCCO, the mass density was 999.965 ± 0.11 kg/m3 in series [2] (278.15 K); 999.698 ± 0.11 kg/m3 in series [2] (283.15 K); 988.027 ± 0.11 kg/m3 in series [2] (323.15 K); 985.682 ± 0.11 kg/m3 in series [2] (328.15 K); 983.186 ± 0.11 kg/m3 in series [2] (333.15 K). Further, the speed of sound in series [2] (318.15 K, Pulse-echo method) came out at 1536.7 ± 0.99 m/s.

For the origin of these results see the NIST ThermoML archive (doi:10.1016/j.jct.2015.02.007).
